In ChEMBL document CHEMBL1201862, “PubChem BioAssay data set” (2004):
Active and inactive are the calls of the source. Cut-off read from the data, not from the text of the source, for most assays here: actives have a measured EC50 and inactives only a lower limit.

Experiments:
[1] = Luminescence Cell-Based Dose Retest to Confirm Inhibitors of Cancer Stem Cells. [Related pubchem assays (depositor defined):AID2717, AID2721]; assay type: functional; conditions: Homo sapiens
[2] = biological target: T1, Heat shock 70 kDa protein 1A (Homo sapiens, UniProt P0DMV8); assay: Hsp70 inhibitors, probe displacement, primary screen, biochemical, fluorescence polarization (AID 583)
T1 sequence (P0DMV8 whole entry): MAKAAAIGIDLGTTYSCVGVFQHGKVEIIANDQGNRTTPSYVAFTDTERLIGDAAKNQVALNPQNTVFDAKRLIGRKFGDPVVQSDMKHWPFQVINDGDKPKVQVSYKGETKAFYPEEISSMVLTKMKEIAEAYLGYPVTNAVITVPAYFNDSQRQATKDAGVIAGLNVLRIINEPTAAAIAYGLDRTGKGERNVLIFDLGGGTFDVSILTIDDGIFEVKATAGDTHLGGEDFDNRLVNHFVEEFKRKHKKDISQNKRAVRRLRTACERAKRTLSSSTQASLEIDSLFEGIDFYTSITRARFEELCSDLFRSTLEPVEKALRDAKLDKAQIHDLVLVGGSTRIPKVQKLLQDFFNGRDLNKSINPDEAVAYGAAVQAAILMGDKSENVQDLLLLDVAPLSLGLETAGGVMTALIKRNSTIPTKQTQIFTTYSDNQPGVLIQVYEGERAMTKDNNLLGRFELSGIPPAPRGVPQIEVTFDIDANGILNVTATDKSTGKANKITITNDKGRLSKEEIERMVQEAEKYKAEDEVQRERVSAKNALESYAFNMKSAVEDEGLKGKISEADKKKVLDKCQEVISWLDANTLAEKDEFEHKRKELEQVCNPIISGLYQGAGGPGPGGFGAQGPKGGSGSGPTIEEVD

[3] = biological target: T1, Heat shock 70 kDa protein 1A; assay: Hsp70 inhibitors, biochemical, TR-FRET (AID 786)
[4] = biological target: Serine/threonine-protein phosphatase (Homo sapiens, UniProt Q9BPW0); assay: Counterscreen for inhibitors of PP1: fluorescence-based biochemical high throughput dose response assay to identify inhibitors of Protein Phosphatase 5 (PP5). [Related pubchem assays: 2034 (Summary (PP5 inhibitors)), 1987 (PP5 inhibitors in singlate), 2235 (PP1 inhibitors in singlate)]
Sequence of Serine/threonine-protein phosphatase (Q9BPW0 whole entry): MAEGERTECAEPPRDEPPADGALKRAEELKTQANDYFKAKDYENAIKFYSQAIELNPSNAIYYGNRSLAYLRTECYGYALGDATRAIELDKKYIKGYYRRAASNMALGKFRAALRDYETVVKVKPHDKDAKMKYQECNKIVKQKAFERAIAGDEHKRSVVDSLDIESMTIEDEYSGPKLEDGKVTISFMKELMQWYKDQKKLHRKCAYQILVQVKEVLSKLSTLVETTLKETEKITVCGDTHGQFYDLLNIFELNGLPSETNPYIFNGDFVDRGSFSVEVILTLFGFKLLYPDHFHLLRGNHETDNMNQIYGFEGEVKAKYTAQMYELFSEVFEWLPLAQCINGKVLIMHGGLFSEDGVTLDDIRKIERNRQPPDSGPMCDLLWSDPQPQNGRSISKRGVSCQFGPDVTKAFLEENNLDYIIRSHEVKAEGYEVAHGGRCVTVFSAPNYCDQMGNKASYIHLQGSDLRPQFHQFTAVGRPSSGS

[5] = biological target: Serine/threonine-protein phosphatase PP1-alpha catalytic subunit (Homo sapiens, UniProt P62136); assay: PP1 phosphatase inhibitors, dose response, biochemical, fluorescence (AID 2403);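 note: phosphatase turnover of OMFP into fluorescent 3-O-methylfluorescein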
Sequence of Serine/threonine-protein phosphatase PP1-alpha catalytic subunit (P62136 whole entry): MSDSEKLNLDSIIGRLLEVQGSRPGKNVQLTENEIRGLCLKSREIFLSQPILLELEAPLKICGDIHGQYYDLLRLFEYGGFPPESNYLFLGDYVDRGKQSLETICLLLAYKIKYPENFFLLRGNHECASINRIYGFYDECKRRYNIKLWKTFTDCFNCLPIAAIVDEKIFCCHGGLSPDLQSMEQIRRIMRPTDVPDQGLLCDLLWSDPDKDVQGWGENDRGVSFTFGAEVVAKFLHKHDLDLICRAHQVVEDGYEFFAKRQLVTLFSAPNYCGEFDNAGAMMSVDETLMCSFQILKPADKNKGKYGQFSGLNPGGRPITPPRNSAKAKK

[6] = biological target: Bcl-2-like protein 10 (Homo sapiens, UniProt Q9HD36); assay: Biochemical TR3 FP assay of Bcl-B inhibitor potency, EC50 (AID 1243); assay type: functional
Sequence of Bcl-2-like protein 10 (Q9HD36 whole entry): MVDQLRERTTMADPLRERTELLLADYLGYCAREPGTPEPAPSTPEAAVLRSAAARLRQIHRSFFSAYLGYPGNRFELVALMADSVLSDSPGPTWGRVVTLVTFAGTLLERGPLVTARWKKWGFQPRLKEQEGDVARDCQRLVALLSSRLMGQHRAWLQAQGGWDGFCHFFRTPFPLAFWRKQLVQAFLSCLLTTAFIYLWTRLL

[7] = biological target: T2, Neuropeptide Y receptor type 1 (Homo sapiens, UniProt P25929); assay type: functional;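 note: HEK293 cells with a CNG channel challenged with NPY then isoproterenol; potency as antagonist that reverses NPY suppression of cAMP signal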
T2 sequence (P25929 whole entry): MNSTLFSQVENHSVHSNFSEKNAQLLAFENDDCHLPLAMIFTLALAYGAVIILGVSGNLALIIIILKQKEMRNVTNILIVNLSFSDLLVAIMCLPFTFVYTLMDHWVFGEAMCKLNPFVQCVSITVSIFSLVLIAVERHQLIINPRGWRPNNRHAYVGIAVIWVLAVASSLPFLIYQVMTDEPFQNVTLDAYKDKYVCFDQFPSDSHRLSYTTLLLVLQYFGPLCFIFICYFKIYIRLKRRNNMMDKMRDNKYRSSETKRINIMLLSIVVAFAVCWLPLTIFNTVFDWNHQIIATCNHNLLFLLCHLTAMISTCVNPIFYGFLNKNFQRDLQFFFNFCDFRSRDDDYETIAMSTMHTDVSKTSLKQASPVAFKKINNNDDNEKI

[8] = inhibitors of firefly luciferase expression or activity, dose response, H4 neuroglioma cells, luminescence (AID 1990); assay type: functional, cell-based
[9] = inhibitors of SNCA 5'UTR-driven reporter translation, confirmation, H4 neuroglioma cells, luminescence (AID 1988); assay type: functional, cell-based
[10] = Luminescence Cell-Based Dose Response HTS to Identify Inhibitors of 5'UTR Stem-Loop Driven Prion Protein mRNA Translation in H4 Neuroglioblastoma Cells. [Related pubchem assays: 1827 (Project Summary), 1813 (Primary HTS)]; assay type: functional
[11] = cytotoxicity toward NIH3T3 fibroblasts, dose response, counter-screen, cell-based, ATP luminescence, mouse fibroblasts (AID 2010); assay type: functional;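 note: cells exposed to compound for about 90 hours before reading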
[12] = inhibitors of intracellular T. cruzi replication, confirmation, NIH3T3 host cells, beta-gal luminescence (AID 2044); assay type: functional, cell-based;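 note: intracellular parasites grown in NIH/3T3 mouse fibroblasts as host cells; luminescent beta-galactosidase reporter signal from transgenic T. cruzi replicating inside host cells; inhibitors lower the luminescence signal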
[13] = biological target: T3, Neuropeptide Y receptor type 2 (Homo sapiens, UniProt P49146); assay type: functional, cell-based;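 note: HEK293 cells expressing the receptor and a CNG channel; stimulus was NPY near EC95 followed by isoproterenol to raise cAMP; antagonist potency measured as restoring cAMP signal that NPY suppresses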
T3 sequence (P49146 whole entry): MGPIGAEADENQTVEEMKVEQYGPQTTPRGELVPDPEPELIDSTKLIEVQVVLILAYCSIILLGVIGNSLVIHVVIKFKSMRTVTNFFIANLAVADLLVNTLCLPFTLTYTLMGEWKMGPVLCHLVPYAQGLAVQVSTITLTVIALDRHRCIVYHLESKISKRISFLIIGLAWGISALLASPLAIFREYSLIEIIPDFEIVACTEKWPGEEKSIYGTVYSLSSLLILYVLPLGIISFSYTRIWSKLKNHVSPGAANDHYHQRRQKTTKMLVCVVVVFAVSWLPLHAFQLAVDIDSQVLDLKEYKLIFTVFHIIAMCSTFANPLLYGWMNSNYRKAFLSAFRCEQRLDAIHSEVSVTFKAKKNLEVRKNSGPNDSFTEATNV

[14] = test system: Streptococcus sp. 'group A'; assay: growth inhibition of control SK(-) GAS strain, dose response, counter-screen for streptokinase expression inhibitor project, luminescence, kanamycin, BacTiterGlo, confirmation (AID 1900); assay type: functional, organism-based
[15] = biological target: T4, Streptokinase A (Streptococcus pyogenes serotype M1, UniProt P10520); assay: S. pyogenes streptokinase expression inhibitors, potency, dose response, plasminogen activation absorbance, OD405 (AID 1914); assay type: functional, Streptococcus pyogenes M1 GAS;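 note: secreted streptokinase activity via plasminogen activation per viability signal from cell pellet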
T4 sequence (P10520 whole entry): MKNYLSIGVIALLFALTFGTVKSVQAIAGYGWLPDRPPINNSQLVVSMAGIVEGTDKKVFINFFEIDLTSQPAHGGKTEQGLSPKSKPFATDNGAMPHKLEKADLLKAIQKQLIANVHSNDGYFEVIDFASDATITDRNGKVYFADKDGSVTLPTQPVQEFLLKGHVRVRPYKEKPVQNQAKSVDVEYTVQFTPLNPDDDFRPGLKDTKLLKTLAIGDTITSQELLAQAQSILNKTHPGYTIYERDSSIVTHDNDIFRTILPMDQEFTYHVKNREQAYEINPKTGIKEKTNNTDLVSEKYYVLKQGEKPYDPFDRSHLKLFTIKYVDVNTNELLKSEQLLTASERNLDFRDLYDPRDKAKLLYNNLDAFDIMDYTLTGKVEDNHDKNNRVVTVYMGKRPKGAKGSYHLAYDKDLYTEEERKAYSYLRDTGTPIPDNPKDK

[16] = test system: Streptococcus; assay: Luminescence Microorganism-Based Dose Response Follow up to Identify Compounds Cytotoxic to Streptococcus. [Related pubchem assays: 1677 (Project Summary), 1915, 1914, 1902 (Retest at Dose), 1900 (Counter Screen), 1662 (Primary HTS)]; assay type: functional, organism-based
[17] = test system: Streptococcus; assay: Group A Streptococcus viability loss, dose response, counter-screen for streptokinase expression inhibitor project, luminescence, BacTiterGlo (AID 1915); assay type: functional, organism-based;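 note: potency for reduction of bacterial viability or growth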
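Throughout, for AC50: cells exposed to compound for roughly 70 hours or longer before luminescence read.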

In the case of `CCCc1cc(SCC(=O)Nc2c(C)n(C)n(-c3ccccc3)c2=O)n2c(nc3ccccc32)c1C#N`, the AC50 [1] is reported as > 195 µM (inactive), the IC50 [2] is reported as > 100 µM (not active) and the IC50 [3] is reported as > 100 µM (not active).
For `O=C(O)c1cc(-c2ccc(Cl)cc2)n(-c2cccc(Cl)c2)n1`, the IC50 [4] was > 67 µM (not active) and the IC50 [5] was 8.1 µM (active).
For `C=CCN1C(=O)/C(=C\c2cccn2-c2cccc([N+](=O)[O-])c2)C(=O)NC1=S`, the EC50 [6] was 5.36 µM (active).
With `CCOc1ccc(-n2cc(C(=O)Nc3cccc(Cl)c3)c3cc(OC)c(OC)cc3c2=O)cc1` the IC50 [7] was > 35 µM (not active), the EC50 [8] was 21.5 µM (active) and the EC50 [9] was > 120 µM (not active). The EC50 [10] was > 120 µM (not active), the EC50 [11] was > 60 µM (not active) and the EC50 [12] was 3.7 µM (active). For the same compound, the IC50 [13] was > 35 µM (not active).
With `Cc1ccc(/C=C/c2ccc(=O)n(Cc3ccccc3Cl)n2)cc1` the EC50 [14] was 6.69 µM (active), the EC50 [15] was 10.2 µM (active) and the EC50 [16] was 10.7 µM (active). The EC50 [17] was > 50 µM (not active).
